{"source": "patent US9968582B2", "about": "“Use of a benzoate containing composition in urea cycle disorders and neurodegenerative disorders” (Rush University Medical Center, priority 2014, dated 2018)", "key": {"spinal cord of EAE mice [1]": {"system": "spinal cord of EAE mice", "assay": "H&E histology, infiltration of inflammatory cells and cuffed vessels in spinal cord of EAE mice", "assay_type": "in vivo", "details": "GTB from 8 dpt, sacrificed 16 dpt", "source_text": "On 14 dpi (first chronic phase), five mice from each of the following groups (control, EAE, EAE+GTB, and EAE+vehicle) were anesthetized. After perfusion with phosphate buffered saline (PBS) (pH 7.4) and then with 4% (w/v) paraformaldehyde solution in PBS, cerebellum and whole spinal cord was dissected out from each mouse. The tissues were further fixed and then divided into halves: one-half was used for histological staining whereas the other half was used for myelin staining. For histological analysis, routine histology was performed to obtain perivascular cuffing and morphological details of CNS tissues of EAE mice. Paraformaldehyde-fixed tissues were embedded in paraffin, and serial sections (4 μm) were cut. Sections were stained with conventional H&E staining method. Digital images were collected under bright-field setting using an ×40 objective. Slides were assessed in a blinded fashion by three examiners for inflammation in different anatomical compartments (meninges and parenchyma). Inflammation was scored using the following scale as described: for meninges and parenchyma: 0, no infiltrating cells; 1, few infiltrating cells; 2, numerous infiltrating cells; and 3, widespread infiltration. For vessels: 0, no cuffed vessel; 1, one or two cuffed vessels per section; 2, three to five cuffed vessels per section and 3, more than five cuffed vessels per section. At least six serial sections of each spinal cord from each of five mice per group were scored and statistically analyzed by ANOVA.\nInfiltration of autoreactive T cells and associated mononuclear cells is a hallmark of EAE as well as MS. The inventor examined whether GTB treatment attenuated infiltration and inflammation in adoptively-transferred EAE mice. Mice receiving GTB from 8 dpt (onset of the acute phase) were sacrificed on 16 dpt. […] In contrast, vehicle was unable to inhibit the infiltration of inflammatory cells (FIG. 4A)."}, "spinal cord of EAE mice [2]": {"system": "spinal cord of EAE mice", "assay": "Luxol fast blue staining for myelin, spinal cord of EAE mice", "assay_type": "in vivo", "details": "FIG. 5A-B", "experimental": "Sections were stained with Luxol fast blue for myelin as described earlier. Slides were assessed in a blinded fashion for demyelination by three examiners using the following scale: 0, normal white matter; 1, rare foci; 2, a few areas of demyelination; and 3, large areas of demyelination. At least six serial sections of each spinal cord from each of five mice per group were scored and statistically analyzed by ANOVA.\nDemyelination is the most important pathological feature in MS, which is also modeled in EAE animals. Therefore, the inventor examined whether GTB protected EAE mice from demyelination. The inventor stained spinal cord sections by luxol fast blue (LFB) for myelin and observed widespread demyelination zones in the white matter (FIG. 5A-B). […] In contrast, vehicle was unable to restore myelin level in spinal cord of EAE mice (FIG. 5A-B). To confirm this finding, the inventor monitored the expression of […] myelin genes, myelin basic protein (MBP) and proteolipid protein (PLP), and observed a marked loss of mRNA expression of these genes in the spinal cord of untreated EAE mice compared to control mice (FIG. 5C-E)."}, "TGF-β": {"system": "TGF-β", "assay": "TGF-β ELISA in serum of EAE mice", "assay_type": "in vivo", "details": "GTB from 8 dpt, sacrificed 16 dpt; FIG. 6", "source_text": "Production of TGF-β in culture supernatant was monitored by ELISA using assay kit from eBioscience (San Diego, Calif.).\nBecause TGF-β is known to protect mice from EAE, the inventor examined the level of TGF-β in serum of GTB-treated and untreated EAE mice by ELISA. EAE mice receiving GTB or vehicle from 8 dpt were sacrificed on 16 dpt followed by analysis of TGF-β in serum. The inventor observed marked decrease in TGF-β in the serum of EAE mice as compared to control mice (FIG. 6)."}, "[3]": {"system": "Foxp3+CD4+ population of T cells", "assay": "Flow cytometry of Tregs in splenocytes of EAE mice", "assay_type": "in vivo", "details": "FIG. 7A-D", "experimental": "Two-color flow cytometry was performed as described previously. Briefly, 1×10^6 lymph node cells (LNC) or splenocytes suspended in flow staining buffer were incubated at 4° C. with appropriately diluted FITC-labeled Ab to CD4 for 30 min, washed, and re-suspended in fixation and permeabilization solution. Following incubation in dark for 30 min, cells were washed, blocked with test Fc block (anti-mouse CD16/32) in permeabilization buffer, and subsequently incubated with appropriately diluted PE-labeled Abs to Foxp3 at 4° C. in the dark. After incubation, the cell suspension was centrifuged, washed thrice, and re-suspended in flow staining buffer. The cells then were analyzed through FACS (BD Biosciences, San Jose, Calif.). Cells were gated based on morphological characteristics. Apoptotic and necrotic cells were not accepted for FACS analysis.\nSince TGF-β is involved in the differentiation of non-Tregs into Tregs, the inventor monitored the status of Tregs in EAE mice. A major population of Tregs is characterized by a transcription factor FoxP3. During autoimmune insults, Tregs become both numerically and functionally defective. Therefore, as expected, the inventor observed significant reduction in Foxp3+CD4+ population of T cells in EAE splenocytes as evident from FACS dot plot (FIG. 7A-B). […]"}, "DJ-1": {"system": "DJ-1", "assay": "MPTP mouse model of PD, Western blot of DJ-1 in the nigra", "assay_type": "in vivo, mice", "details": "oral GTB in MPTP-intoxicated mice, dose-dependent; FIG. 9A-B", "experimental": "Six- to eight-week old C57BL/6 mice were purchased from Harlan (Indianapolis, Ind.). For acute MPTP intoxication, mice received four intraperitoneal (i.p.) injections of MPTP-HCl (18 mg/kg of free base; Sigma Chemical Co., St. Louis, Mo.) in saline at 2-h intervals. Control animals received only saline.\nGTB was mixed in 0.5% methylcellulose (MC) and from 3 h after the last injection of MPTP, mice were gavaged 100 μL GTB-mixed MC once daily using gavage needle. Therefore, control MPTP mice received only MC as vehicle.\nImmunoblot analysis for DJ-1 and TH was carried out. Briefly, cell homogenates were electrophoresed, proteins were transferred onto a nitrocellulose membrane, and bands were visualized with an Odyssey infrared scanner after immunolabeling with respective primary antibodies followed by infra-red fluorophore-tagged secondary antibody (Invitrogen).\nUpregulation and/or maintenance of PD-related beneficial protein such as DJ-1 in the nigra during neurodegenerative insults may have therapeutic efficacy in PD."}, "[4]": {"assay": "Observation of drug related side effects in mice", "assay_type": "in vivo", "details": "any of the mice used during the course of the study"}}, "data": [{"smiles": "O=C(OCC(COC(=O)c1ccccc1)OC(=O)c1ccccc1)c1ccccc1", "note": "[GTB, glyceryl tribenzoate]", "values": [{"measurement": "infiltration of inflammatory cells into the spinal cord (H&E)", "setting": "spinal cord of EAE mice [1]; FIG. 4A", "result": "markedly inhibited the infiltration of inflammatory cells"}, {"measurement": "quantitation of infiltration", "setting": "spinal cord of EAE mice [1]; FIG. 4B", "result": "dramatically reduced infiltration"}, {"measurement": "appearance of cuffed vessels", "setting": "spinal cord of EAE mice [1]; FIG. 4C", "result": "dramatically reduced"}, {"measurement": "myelin level in the spinal cord (LFB)", "setting": "spinal cord of EAE mice [2]", "result": "remarkably restored myelin level"}, {"measurement": "TGF-β in serum", "setting": "TGF-β", "result": "protected TGF-β"}, {"measurement": "Foxp3+CD4+ population in splenocytes", "setting": "[3]", "result": "led to the increase in Foxp3+CD4+ population"}, {"measurement": "level of DJ-1 in the nigra", "setting": "DJ-1", "result": "protected DJ-1 in the nigra"}, {"measurement": "drug related side effect (e.g. hair loss, weight loss, untoward infection)", "setting": "[4]", "result": "did not notice any drug related side effect"}]}]}
